Test results published in patent US8574871B2, “Genetically modified yeasts for the production of homogenous glycoproteins” (GLYCODE, priority 2007, dated 2013).

What was measured:
mannosidase II = target: T1, mannosidase II (Mus musculus, UniProt P27046, V673G); experiment: Mannosidase activity assay in Golgian yeast fractions, with or without swainsonine; format: biochemical; conditions: 12 μM SW (FIG. 9)
T1 construct: Amplification of a 3,453 by fragment; expressed in transfected cells; host or cells: S. cerevisiae and S. pombe with the TEF-promoter cassette integrated in LEU2 (strains Anaïs / Enrique); Golgi fractions
T1 sequence (P27046 1-1150 V673G): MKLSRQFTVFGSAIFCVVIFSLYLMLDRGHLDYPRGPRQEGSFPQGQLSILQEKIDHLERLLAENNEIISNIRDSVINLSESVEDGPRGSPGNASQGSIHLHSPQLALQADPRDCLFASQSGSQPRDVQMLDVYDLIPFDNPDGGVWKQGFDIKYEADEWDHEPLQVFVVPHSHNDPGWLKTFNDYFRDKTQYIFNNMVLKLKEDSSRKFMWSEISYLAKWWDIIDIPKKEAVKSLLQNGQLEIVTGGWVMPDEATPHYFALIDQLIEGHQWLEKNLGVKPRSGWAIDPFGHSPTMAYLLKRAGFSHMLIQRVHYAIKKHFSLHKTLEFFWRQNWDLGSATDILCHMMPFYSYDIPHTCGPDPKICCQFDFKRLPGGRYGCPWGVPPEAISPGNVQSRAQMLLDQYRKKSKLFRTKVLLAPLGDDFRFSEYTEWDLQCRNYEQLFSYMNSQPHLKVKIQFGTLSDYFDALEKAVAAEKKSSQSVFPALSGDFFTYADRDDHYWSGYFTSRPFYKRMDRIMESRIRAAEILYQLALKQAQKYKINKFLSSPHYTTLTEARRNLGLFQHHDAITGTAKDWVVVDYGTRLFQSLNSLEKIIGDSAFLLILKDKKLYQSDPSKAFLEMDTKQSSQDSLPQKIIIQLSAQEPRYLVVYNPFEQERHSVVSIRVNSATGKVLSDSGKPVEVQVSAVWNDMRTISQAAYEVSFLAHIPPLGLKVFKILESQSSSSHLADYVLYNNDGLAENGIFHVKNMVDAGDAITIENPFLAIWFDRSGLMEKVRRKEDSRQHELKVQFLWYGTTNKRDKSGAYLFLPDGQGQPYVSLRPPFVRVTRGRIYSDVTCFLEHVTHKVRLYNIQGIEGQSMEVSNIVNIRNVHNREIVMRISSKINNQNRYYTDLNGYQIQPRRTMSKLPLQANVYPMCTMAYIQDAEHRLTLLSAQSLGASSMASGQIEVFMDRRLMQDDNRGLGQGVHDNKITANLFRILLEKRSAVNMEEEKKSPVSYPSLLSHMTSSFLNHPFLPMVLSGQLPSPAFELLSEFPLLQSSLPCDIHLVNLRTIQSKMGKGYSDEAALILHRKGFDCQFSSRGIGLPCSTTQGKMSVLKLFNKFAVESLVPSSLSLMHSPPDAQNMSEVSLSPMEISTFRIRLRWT
Description: (§1) Mannosidase activity is measured by incubating for 4 hours at 37° C., with 4 mM of p-nitrophenyl-α-D-mannopyranoside with 100-200 μg of proteins (from total proteins or sub-cellular fractions) in 0.1 M of PBS, pH 6.5+/−120 μM DMJ (alpha-1,2-mannosidase I inhibitor) +/−12 μM SW (specific inhibitor of mannosidase II). Absorbance is measured at 405 nm.
According to FIG. 9, we may observe in the parent S. cerevisiae and S. pombe strains a mannosidase activity insensitive to the inhibitory action of swainsonine. […] Further as, the measured mannosidase II activity is detected in Golgian yeast fractions, we may infer that this enzyme is properly expressed in the secretion route at the Golgian system.

alpha-1,2-mannosidase I = experiment: Mannosidase activity assay in yeast microsomes, with or without DMJ; format: biochemical, C. Elegans; conditions: 120 μM DMJ, triplicate (FIG. 6)
Description: as §1
The Adèle and Edgar yeasts, positive for the insertion of the expression cassette of mannosidase I in the gene URA3, are tested for their mannosidase I biochemical activity. […] The experiment was conducted in triplicate. We may observe in the wild S. cerevisiae and S. pombe strains, a mannosidase activity non-inhibited by DMJ.

inhibition of mannosidase activity by DMJ (alpha-1,2-mannosidase I; selected S. cerevisiae and S. pombe strains with mannosidase I cassette)	inhibition of mannosidase activity by DMJ (alpha-1,2-mannosidase I; wild S. cerevisiae and S. pombe strains)	SMILES	inhibition of mannosidase activity by swainsonine (mannosidase II; parent S. cerevisiae and S. pombe strains)	inhibition of mannosidase activity by swainsonine (mannosidase II; selected S. cerevisiae and S. pombe strains with mannosidase II cassette)
–	–	O[C@H]1[C@H]2[C@H](O)CCCN2C[C@H]1O [swainsonine]	insensitive	significant inhibition
significant inhibition	non-inhibited	OC[C@H]1NC[C@@H](O)[C@@H](O)[C@@H]1O [DMJ, deoxymannojirimycin]	–	–
